In test [1] the target is C-Raf kinase (SEQ. ID NO: 3) (Homo sapiens (Human), UniProt P04049, Y340D/Y341D). Description: Biochemical Assay for C-Raf (1). The note with it: Table J, biochemical assay (1); read-out: CRAF (1). Put shortly:
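Coupled pyruvate kinase/LDH assay tracking NADH oxidation at 340 nm, with 0.43 nM C-Raf, 30.1 nM MEK and 1 mM ATP in pH 7.5 Tris buffer (15 mM MgCl2, 1% DMSO final). Read continuously for 6 h at 30 °C, rate taken from the 4–5 h window. IC50 from four-parameter fit of percent inhibition.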

The target of test [2] is A-Raf kinase (SEQ. ID No: 1) (Homo sapiens (Human), UniProt P10398, Y301D/Y302D). Description: Biochemical Assay for A-Raf (1). Particulars: Table J, biochemical assay (1); read-out: ARAF (1). The essentials: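 A-Raf Y301D/Y302D at 5.55 nM phosphorylates 30.1 nM MEK with 1 mM ATP in pH 7.5 Tris buffer, 1% DMSO. Activity was read continuously as NADH oxidation at 340 nm in a pyruvate kinase/lactate dehydrogenase coupled system for 6 h at 30 °C. Rates from 4–5 h were converted to percent inhibition, and IC50 came from a four-parameter fit.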
Chain of A-Raf kinase (SEQ. ID No: 1) (P10398 other isoform, or with tags, fused parts or gaps Y301D (already in the parent)/Y302D (already in the parent)): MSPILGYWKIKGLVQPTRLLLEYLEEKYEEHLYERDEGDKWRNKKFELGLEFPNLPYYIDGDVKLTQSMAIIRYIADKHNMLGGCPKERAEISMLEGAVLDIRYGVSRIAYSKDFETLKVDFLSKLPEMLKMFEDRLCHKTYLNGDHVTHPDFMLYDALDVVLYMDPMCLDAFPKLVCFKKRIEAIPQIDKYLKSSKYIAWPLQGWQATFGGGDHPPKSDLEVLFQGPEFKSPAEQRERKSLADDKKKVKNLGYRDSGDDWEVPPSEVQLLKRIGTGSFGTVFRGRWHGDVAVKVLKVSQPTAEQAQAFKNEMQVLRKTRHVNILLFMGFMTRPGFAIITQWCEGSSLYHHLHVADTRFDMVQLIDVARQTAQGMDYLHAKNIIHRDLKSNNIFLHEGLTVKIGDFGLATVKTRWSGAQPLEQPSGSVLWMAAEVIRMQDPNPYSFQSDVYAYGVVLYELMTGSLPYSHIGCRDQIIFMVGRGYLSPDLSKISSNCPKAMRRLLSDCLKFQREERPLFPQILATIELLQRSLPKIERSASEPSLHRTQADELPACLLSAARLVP

Test [3] concerns the target B-Raf kinase (SEQ. ID NO: 2) (Homo sapiens (Human), UniProt P15056). Description: Biochemical Assay for B-Raf (2). The note with it: Table J, biochemical assay (2); read-out: BRAF (2). How it is done: Biochemical Assay for B-Raf (2)
Activity of B-Raf kinase (SEQ. ID NO: 2) was determined spectroscopically using a coupled pyruvate kinase/lactate dehydrogenase assay that continuously monitors the ATP hydrolysis-dependent oxidation of NADH (e.g., Schindler et al., Science, 2000, 289, 1938-1942). Assays were conducted in 384-well plates (25 μL final volume) using 2 nM B-Raf (Sigma), 1.5 units pyruvate kinase, 2.1 units lactate dehydrogenase, 1 mM phosphoenol pyruvate, 0.7 mM NADH, 50 nM MEK (SignalChem), and 1 mM ATP in assay buffer (100 mM Tris, pH 7.5, 15 mM MgCl2, 0.5 mM DTT, 0.1% octyl-glucoside, 0.002% (w/v) BSA, and 0.002% Triton X-100). Inhibition of B-Raf was measured by adding serial diluted test compound (final assay concentration of 1% DMSO). A decrease in absorption at 340 nm was monitored hourly for 4 h at 30° C. on a multi-mode microplate reader (BioTek). The reaction rate was calculated using the 2 to 3 h time frame. The reaction rate at each concentration of compound was converted to percent inhibition using controls (i.e., reaction with no test compound and reaction with a known inhibitor) and IC50 values were calculated by fitting a four-parameter sigmoidal curve to the data using Prism (GraphPad software).

For another test, the system named is WM3928 cells. The experiment in a line: WM3928 Cell Proliferation Assay (2). It is filed as cell-based. The procedure: WM3928 Cell Proliferation Assay (2)
WM3928 cells (#WM3928-01-0001) are obtained from Rockland Immunochemicals Inc (Gilbertsville, PA). Briefly, cells were grown in MCDB 153 medium (Sigma, #M7403, St. Louis, MO) supplemented with 20% Leibovitz's L-15 (ThermoFisher #11415-064, Waltham, MA), 2% heat inactivated fetal bovine serum (ThermoFisher, #A3840001, Waltham, MA), 5 μg/mL Insulin (Bovine Pancreas) (Sigma, #10516, St. Louis, MO), 1.68 mM Calcium Chloride (Sigma, #C-34006, St. Louis, MO) and 1% Penicillin/Streptomycin/L-Glutamine (ThermoFisher #10378016, Waltham, MA) at 37° C., 5% CO2, and 95% humidity. Cells are expanded until reaching 70-95% confluency at which point they are sub-cultured or harvested for assay use. Using the Beckman Coulter Echo 650, a serial dilution of test compound is dispensed into a 384-well black clear bottom plate in triplicate. Seven hundred fifty cells are added per well in 50 μL complete growth medium in the 384-well plate. Plates are incubated for 67-72 hours at 37° C., 5% CO2, and 95% humidity. At the end of the incubation, 10 μL of a 440 μM solution of resazurin (Sigma, #199303, St. Louis, MO) in PBS is added to each well of the plate and plates are incubated for an additional 3-6 hours at 37° C., 5% CO2, and 95% humidity. Plates are read on a Synergy2 or equivalent reader (Biotek, Winooski VT) using an excitation of 540 nm and an emission of 600 nm. Data is analyzed using Prism software (GraphPad, San Diego, CA) to calculate IC50 values.

Chain of C-Raf kinase (SEQ. ID NO: 3) (P04049 307-648 Y340D/Y341D): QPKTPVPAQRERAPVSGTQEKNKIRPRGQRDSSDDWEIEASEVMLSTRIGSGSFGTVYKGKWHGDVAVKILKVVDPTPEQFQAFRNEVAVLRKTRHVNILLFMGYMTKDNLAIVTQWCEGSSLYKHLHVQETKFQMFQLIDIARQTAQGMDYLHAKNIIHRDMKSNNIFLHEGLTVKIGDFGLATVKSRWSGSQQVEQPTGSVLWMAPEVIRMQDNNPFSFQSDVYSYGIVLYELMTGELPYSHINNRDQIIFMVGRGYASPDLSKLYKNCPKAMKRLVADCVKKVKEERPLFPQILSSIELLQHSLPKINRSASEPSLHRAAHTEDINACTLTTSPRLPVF
Chain of B-Raf kinase (SEQ. ID NO: 2) (P15056 416-766): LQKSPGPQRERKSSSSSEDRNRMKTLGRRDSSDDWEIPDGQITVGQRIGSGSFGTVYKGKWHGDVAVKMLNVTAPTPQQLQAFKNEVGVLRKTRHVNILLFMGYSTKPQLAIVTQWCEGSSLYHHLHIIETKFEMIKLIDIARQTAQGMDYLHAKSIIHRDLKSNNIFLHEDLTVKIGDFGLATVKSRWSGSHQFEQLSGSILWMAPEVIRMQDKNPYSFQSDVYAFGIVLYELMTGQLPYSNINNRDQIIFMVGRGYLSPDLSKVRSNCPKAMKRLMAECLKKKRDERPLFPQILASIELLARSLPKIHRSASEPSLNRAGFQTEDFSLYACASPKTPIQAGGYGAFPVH

Turning to `COC(=O)Nc1cc(-c2cccc(-c3cc(NC(=O)c4ccnc(C(C)(C)F)c4)cnc3C)c2)ncn1` [Example 404], the IC50 is at most 100 nM in test [1] and 1000 to 10000 nM in test [2].
The corresponding values for `COC(=O)Nc1cc(-c2cncc(-c3cc(NC(=O)c4ccnc(C5(C#N)CC5)c4)ccc3C)c2)ncn1` [Example 405] are at most 100 nM and 1000 to 10000 nM.
The corresponding values for `Cc1ncc(NC(=O)c2ccnc(C(C)(C)F)c2)cc1-c1cncc(-c2cc(NC(=O)C3CC3)ncn2)c1` [Example 406] are at most 100 nM and 500 to 1000 nM.
The corresponding values for `Cc1ncc(NC(=O)c2ccnc(C(C)(C)C#N)c2)cc1-c1cccc(-c2cnc3ccccn23)c1` [Example 407] are 100 to 500 nM and 1000 to 10000 nM.
Turning to `CNC(=O)c1cc(-c2cncc(-c3cc(NC(=O)c4ccnc(C(C)(C)F)c4)c(F)cc3C)c2)ccn1` [Example 408], the IC50 was at most 100 nM in test [1] and 1000 to 10000 nM in test [2].
The corresponding values for `COC(=O)Nc1cc(-c2cnnc(-c3cc(NC(=O)c4cn(C(C)C)nn4)ccc3C)c2)ccn1` [Example 409] are 100 to 500 nM and 1000 to 10000 nM.
The corresponding values for `Cc1ncc(NC(=O)c2ccnc(C(C)(C)C#N)c2)cc1-c1cncc(-c2cc(NC(=O)C3CC3)ncn2)c1` [Example 410] are at most 100 nM and 1000 to 10000 nM.
Regarding `Cc1ccc(NC(=O)c2ccnc(C(C)(C)F)c2)cc1-c1cncc(-c2cc(N)ncn2)c1` [Example 411], the IC50 in test [1] was at most 100 nM; in test [2] it was 1000 to 10000 nM.
The corresponding values for `Cc1ccc(NC(=O)c2cn(C(C)C)nn2)cc1-c1cncc(-c2cc(NC(=O)C3CC3)ncn2)c1` [Example 412] are at most 100 nM and 100 to 500 nM.
The corresponding values for `CNC(=O)c1cc(-c2cncc(-c3cc(NC(=O)c4ccnc(C(C)(C)F)c4)ccc3C)c2)ccn1` [Example 413] are at most 100 nM and 1000 to 10000 nM.
The corresponding values for `COC(=O)Nc1cc(-c2cncc(-c3cc(NC(=O)c4ccnc(C(C)(C)C#N)c4)ccc3C)c2)ncn1` [Example 414] are at most 100 nM and 1000 to 10000 nM.
As to `COC(=O)Nc1cc(-c2cccc(-c3cc(NC(=O)Cn4cc(C(C)C)nn4)cnc3C)c2)ccn1` [Example 415], the results for the IC50 in test [1] and in test [2] were 100 to 500 nM and 1000 to 10000 nM, respectively.
The corresponding values for `COC(=O)Nc1cc(-c2cc(-c3cc(NC(=O)c4ccnc(C(C)(C)F)c4)ccc3C)nc(C)n2)ccn1` [Example 416] are at most 100 nM and 1000 to 10000 nM.
The corresponding values for `Cc1ccc(NC(=O)c2ccnc(C(C)(C)F)c2)cc1-c1cncc(-c2ccnc(NC(=O)C3CC3)c2)c1` [Example 417] are at most 100 nM and 100 to 500 nM.
The corresponding values for `Cc1cc(F)c(NC(=O)c2ccnc(C(C)(C)C#N)c2)cc1-c1cncc(-c2ccnc(NC(=O)C3CC3)c2)c1` [Example 418] are at most 100 nM and 500 to 1000 nM.
In the case of `Cc1ccc(NC(=O)c2ccnc(C(C)(F)F)c2)cc1-c1cncc(-c2cc(NC(=O)C3CC3)ncn2)c1` [Example 419], the IC50 in test [1] is at most 100 nM; in test [2], 500 to 1000 nM.
The corresponding values for `Cc1ccc(NC(=O)c2ccnc(C(C)(C)C#N)c2)cc1-c1cncc(-c2cc(NC(=O)C(C)C)ncn2)c1` [Example 420] are at most 100 nM and 1000 to 10000 nM.
The corresponding values for `Cc1ccc(NC(=O)c2cc(C3CC3)on2)cc1-c1cncc(-c2cc(NC(=O)C3CC3)ncn2)c1` [Example 421] are at most 100 nM and 1000 to 10000 nM.
On to `Cc1ccc(NC(=O)c2ccnc(C(C)(C)C#N)c2)cc1-c1cncc(-c2cc(N)ncn2)c1` [Example 422], for which the IC50 in test [1] is at most 100 nM; in test [2], 1000 to 10000 nM.
The corresponding values for `Cc1cc(F)c(NC(=O)c2ccnc(C(C)(C)F)c2)cc1-c1cncc(-c2cc(NC(=O)C3CC3)ncn2)c1` [Example 423] are at most 100 nM and 1000 to 10000 nM.
For `Cc1cc(F)c(NC(=O)c2ccnc(C(C)(C)C#N)c2)cc1-c1cncc(-c2cc(NC(=O)C3CC3)ncn2)c1` [Example 424], the IC50 is at most 100 nM in test [1] and 500 to 1000 nM in test [2].
For the compound `COC(=O)Nc1cc(-c2cncc(-c3cc(NC(=O)c4ccnc(C(C)(C)F)c4)ccc3C)c2)ncn1` [Example 425], the IC50 in test [1] was at most 100 nM; in test [2], 1000 to 10000 nM.
The corresponding values for `CNC(=O)c1cc(-c2nccc(-c3cc(NC(=O)c4ccnc(C(C)(C)F)c4)c(F)cc3C)n2)ccn1` [Example 427] are at most 100 nM and 1000 to 10000 nM.
The corresponding values for `CNC(=O)c1cc(-c2cc(-c3cc(NC(=O)c4ccnc(C(C)(C)F)c4)ccc3C)nc(C)n2)ccn1` [Example 428] are 100 to 500 nM and 1000 to 10000 nM.
The corresponding values for `Cc1ccc(NC(=O)c2ccnc(C(F)F)c2)cc1-c1cncc(-c2cc(NC(=O)C3CC3)ncn2)c1` [Example 429] are at most 100 nM and 100 to 500 nM.
Regarding `Cc1ccc(NC(=O)c2cnn(C3CC3)c2)cc1-c1cncc(-c2cc(NC(=O)C3CC3)ncn2)c1` [Example 430], the IC50 was at most 100 nM in test [1] and 500 to 1000 nM in test [2].
The corresponding values for `Cc1ccc(NC(=O)c2cc(C(C)(C)C)on2)cc1-c1cncc(-c2cc(NC(=O)C3CC3)ncn2)c1` [Example 431] are at most 100 nM and 100 to 500 nM.
The corresponding values for `Cc1ccc(NC(=O)c2ccnc(C(C)(C)F)c2)cc1-c1cncc(-c2ccnc3c2CC(=O)N3)c1` [Example 432] are at most 100 nM and 1000 to 10000 nM.
The corresponding values for `Cc1ncc(NC(=O)c2ccnc(C(C)(C)F)c2)cc1-c1cncc(-c2ccnc(NC(=O)C3CC3)c2)c1` [Example 433] are at most 100 nM and 1000 to 10000 nM.
On to `Cc1ccc(NC(=O)c2ccnc(C(C)C)c2)cc1-c1cncc(-c2cc(NC(=O)C3CC3)ncn2)c1` [Example 434], for which the IC50 in test [1] was at most 100 nM; in test [2], 100 to 500 nM.
The corresponding values for `COC(=O)Nc1cc(-c2cncc(-c3cc(NC(=O)c4ccnc(C(C)(C)F)c4)ccc3C)c2)ccn1` [Example 435] are at most 100 nM and 1000 to 10000 nM.
The corresponding values for `Cc1ccc(NC(=O)c2cc(C3CC3)n(C)n2)cc1-c1nccc(-c2ccnc(NC(=O)C3CC3)c2)n1` [Example 436] are at most 100 nM and 500 to 1000 nM.
As to `CNC(=O)c1cc(-c2cc(-c3cc(NC(=O)c4ccnc(C(C)(C)C#N)c4)ccc3OC)ccn2)ccn1` [Example 437], the IC50 in test [1] is at most 100 nM; in test [2], 1000 to 10000 nM.
As for `COc1ccc(NC(=O)c2ccnc(C(C)(C)C#N)c2)cc1-c1cccc(-c2cc(NC(=O)C3CC3)ncn2)c1` [Example 438], the IC50 in test [1] is at most 100 nM; in test [2], 1000 to 10000 nM.
In the case of `CNC(=O)c1cc(-c2cncc(-c3cc(NC(=O)c4ccnc(C(C)(F)F)c4)ccc3C)c2)ncn1` [Example 439], the IC50 in test [3] was at most 100 nM; with WM3928 cells, 100 to 500 nM.
Take `CNC(=O)c1cc(-c2cncc(-c3cc(NC(=O)c4ccnc(C(C)(F)F)c4)ccc3C)c2)ccn1` [Example 440]: the IC50 (in test [3]; with WM3928 cells) was at most 100 nM each time.

For the origin of these results see patent publication US12319655B2, “RAF kinase inhibitors and methods of use thereof” (Deciphera Pharmaceuticals, LLC, priority 2021, dated 2025).
